Test results from US20060276340A1, “HERBICIDE COMPOSITION COMPRISING PYRIBAMBENZ-PROPYL OR PYRIBAMBENZ-ISOPROPYL” (Zhejiang Chem-Tech Group Co., Ltd., priority 2003, published 2006).
Entries after “also recorded” stand apart in the source; their conditions may differ.

Legend:
Assay type in all cases: in vivo
Poa annua [1] = assay: greenhouse pot test, post-emergence early stage treatment
Method: (§1) The test soil is a formulated sandy loam soil. 9.5 centimeter diameter pots are used for herbicidal activity test.
(§2) The pots for post-emergence treatment are placed into a greenhouse and incubated for 7 to 9 days, and then subjected to leave treatment by spraying. The preparation liquid for the treatment prepared by mixing individual single-herbicides was diluted with water to the desired dosage.
(§3) The treated pots stood for one day, then were placed in a greenhouse and watered regularly. The herbicidal activities of the compositions were evaluated by visual examination after incubating for 14 to 21 days.
(§4) The herbicidal activities of the compositions were evaluated by plant symptoms such as stunting, deformity, chlorosis, and whitening. 0 represents that the compositions have no herbicidal effect or have safety to crops. 100 represents that the weeds or crops were completely killed.

Beckmannia syzigachne [2] = assay: as above; conditions: BECSY 2˜3 leaves
Method: as §1, §2, §3, §4

Galium aparine [3] = assay: as above
Method: as §1, §2, §3, §4

Alopercurus japonicus [4] = assay: as above; conditions: ALOJA
Method: as §1, §2, §3, §4

Cerastium arvense [5] = assay: as above
Method: as §1, §2, §3, §4

Poa annua [6] = assay: greenhouse pot test, Tables 1-2; conditions: POAAN 3 leaves
Method: as §1
(§5) The soil in the pot for the pre-emergence test was sprayed one day after planting. The preparation liquid for the treatment prepared by mixing individual single-herbicides was diluted with water to the desired dosage.
as §2, §3, §4

Polypogon fugax [7] = assay: greenhouse pot test, Tables 1-2; conditions: POLFU 3-4 leaves
Method: as §1, §5, §2, §3, §4

Alopecurus aequalis [8] = assay: greenhouse pot test, Tables 1-2
Method: as §1, §5, §2, §3, §4

Beckmannia syzigachne [9] = assay: greenhouse pot test, Tables 1-2; conditions: BECSY 2 leaves
Method: as §1, §5, §2, §3, §4

Digitrria sanguinalis = assay: greenhouse pot test, Tables 1-2; conditions: DIGSA 3 leaves
Method: as §1, §5, §2, §3, §4

rape = assay: safety to crops
Method: The herbicidal activities of the compositions were evaluated by plant symptoms such as stunting, deformity, chlorosis, and whitening. 0 represents that the compositions have no herbicidal effect or have safety to crops. 100 represents that the weeds or crops were completely killed. [table]

Poa annua [10] = assay: greenhouse pot test, post-emergence treatment; conditions: POAAN
Method: as §1, §2, §3, §4

Veronica didyma = assay: greenhouse pot test, post-emergence treatment; conditions: VERDI
Method: as §1, §2, §3, §4

Polypogon fugax [11] = assay: greenhouse pot test, post-emergence treatment; conditions: POLFU 4˜4.5 leaves
Method: as §1, §2, §3, §4

Alopecurus aequalis [12] = assay: greenhouse pot test, post-emergence treatment; conditions: ALOAE 3 leaves
Method: as §1, §2, §3, §4

Galium aparine [13] = assay: greenhouse pot test, post-emergence treatment
Method: as §1, §2, §3, §4

Alopercurus japonicus [14] = assay: greenhouse pot test, post-emergence treatment; conditions: ALOJA
Method: as §1, §2, §3, §4

Cerastium arvense [15] = assay: greenhouse pot test, post-emergence treatment; conditions: CERAR 6 leaves
Method: as §1, §2, §3, §4

weeds in rape field = assay: weed control in rape field, descriptive statements

Structure (SMILES): COc1cc(OC)nc(Oc2ccccc2CNc2ccc(C(=O)OC(C)C)cc2)n1 [Pyribambenz-isopropyl, iso-propyl 4-({2-[(4,6-dimethoxypyrimidin-2-yl)oxy]benzyl}amino)benzoate]
- visual evaluation of weed effects (Poa annua [1]; POAAN 2˜3 leaves, 30 g/ha): 80%
- visual evaluation of weed effects (Poa annua [1]; POAAN 2˜3 leaves, 45 g/ha): 95%
- visual evaluation of weed effects (Poa annua [1]; POAAN, 30 g/ha): 95%
- visual evaluation of weed effects (Poa annua [1]; POAAN, 45 g/ha): 98%
- visual evaluation of weed effects (Beckmannia syzigachne [2]; 30 g/ha): 50%
- visual evaluation of weed effects (Beckmannia syzigachne [2]; 45 g/ha): 70%
- visual evaluation of weed effects (Galium aparine [3]; GALAP 7˜8 leaves, 30 g/ha): 0%
- visual evaluation of weed effects (Galium aparine [3]; GALAP 7˜8 leaves, 45 g/ha): 10%
- visual evaluation of weed effects (Galium aparine [3]; GALAP, 30 g/ha): 30%
- visual evaluation of weed effects (Galium aparine [3]; GALAP, 45 g/ha): 50%
- visual evaluation of weed effects (Alopercurus japonicus [4]; 30 g/ha): 90%
- visual evaluation of weed effects (Alopercurus japonicus [4]; 45 g/ha): 90%
- visual evaluation of weed effects (Cerastium arvense [5]; CERAR 3˜4 leaves, 30 g/ha): 40%
- visual evaluation of weed effects (Cerastium arvense [5]; CERAR 3˜4 leaves, 45 g/ha): 60%
- visual evaluation of weed effects (Cerastium arvense [5]; CERAR, 30 g/ha): 80%
- visual evaluation of weed effects (Cerastium arvense [5]; CERAR, 45 g/ha): 90%
- visual evaluation of weed effects (Poa annua [6]; 30 g/ha): 60%
- visual evaluation of weed effects (Poa annua [6]; 45 g/ha): 90%
- visual evaluation of weed effects (Polypogon fugax [7]; 30 g/ha): 80%
- visual evaluation of weed effects (Polypogon fugax [7]; 45 g/ha): 80%
- visual evaluation of weed effects (Alopecurus aequalis [8]; ALOAE 0 leaf, 30 g/ha): 90%
- visual evaluation of weed effects (Alopecurus aequalis [8]; ALOAE 0 leaf, 45 g/ha): 90%
- visual evaluation of weed effects (Alopecurus aequalis [8]; ALOAE 3 leaves, 30 g/ha): 100%
- visual evaluation of weed effects (Alopecurus aequalis [8]; ALOAE 3 leaves, 45 g/ha): 100%
- visual evaluation of weed effects (Beckmannia syzigachne [9]; 30 g/ha): 30%
- visual evaluation of weed effects (Beckmannia syzigachne [9]; 45 g/ha): 30%
- visual evaluation of weed effects (Digitrria sanguinalis; 30 g/ha): 60%
- visual evaluation of weed effects (Digitrria sanguinalis; 45 g/ha): 80%
- selectivity between rape and weeds (rape; in vivo): good selectivity
- safety to crops (rape; rape / objective crops): safety toward rape
- visual evaluation of weed effects (Poa annua [10]; 30 g/ha): 85%
- visual evaluation of weed effects (Poa annua [10]; 45 g/ha): 90%
- visual evaluation of weed effects (Veronica didyma; 30 g/ha): 20%
- visual evaluation of weed effects (Veronica didyma; 45 g/ha): 30%
- visual evaluation of weed effects (Polypogon fugax [11]; 30 g/ha): 50%
- visual evaluation of weed effects (Polypogon fugax [11]; 45 g/ha): 60%
- visual evaluation of weed effects (Alopecurus aequalis [12]; 30 g/ha): 80%
- visual evaluation of weed effects (Alopecurus aequalis [12]; 45 g/ha): 90%
- visual evaluation of weed effects (Galium aparine [13]; GALAP 7˜8 leaves, 30 g/ha): 0%
- visual evaluation of weed effects (Galium aparine [13]; GALAP 7˜8 leaves, 45 g/ha): 0%
- visual evaluation of weed effects (Galium aparine [13]; GALAP, 30 g/ha): 20%
- visual evaluation of weed effects (Galium aparine [13]; GALAP, 45 g/ha): 20%
- visual evaluation of weed effects (Alopercurus japonicus [14]; 30 g/ha): 85%
- visual evaluation of weed effects (Alopercurus japonicus [14]; 45 g/ha): 90%
- visual evaluation of weed effects (Cerastium arvense [15]; 30 g/ha): 50%
- visual evaluation of weed effects (Cerastium arvense [15]; 45 g/ha): 60%
- weed control (weeds in rape field; Alopecurus aequalis, Alopecurus japonicus, Stellaria aquatica, Stallaria media and Atellaria alsine): high-effectively control; also recorded: effective weed control
- effectiveness of control (weeds in rape field; second important weeds in rape field: Poa annua, sclerochloa kengiana, Beckmannia syzigachne, Polypogon fugax, broadleaf Cardlamine hirsuta, Galium aparine, Lapsana apogonoides, Hemistepta lyrata): moderate
